# Tests used:
# [1] = biological target: T1, E. coli K12 PBP3 (Escherichia coli, UniProt P0AD68); test: biochemical; assay type: binding
# T1 construct: made in house
# Outline: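 Fluorescence polarization (ex 490/em 520 nm) competition of inhibitors against Bocillin-FL at 0.1 μM, read up to 60 min. Final PBP levels: E. coli PBP3 1.5 μM; A. baumannii PBP2 2.5 μM, PBP3 0.2 μM in Tris pH 8.0/NaCl/glycerol/Tween 20; N. gonorrhoeae PBP2 […] in Hepes pH 8.0/NaCl/glycerol. EC50 = concentration halving PBP-bound Bocillin-FL.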
# [2] = biological target: T2, P. aeruginosa PBP3 (Pseudomonas aeruginosa, UniProt G3XD46); test: Bocillin-FL fluorescence polarization competition binding assay, P. aeruginosa PBP3; conditions: fluorescence polarization competition binding assay using Bocillin-FL
# T2 construct: made in house
# Outline: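 Binding of boronic acid inhibitors to purified Pseudomonas aeruginosa (PA01) PBP3 was measured by fluorescence polarization competition with Bocillin-FL, a fluorescent penicillin V. Reactions of 80 μl contained 0.75 μM PBP3 and 0.1 μM Bocillin-FL in 50 mM Hepes (pH 8.0), 300 mM NaCl and 5% (v/v) glycerol, in black 384-well plates. FP (Excitation 490 nm, Emission 520 nm) was read for up to 60 minutes. EC50 is the concentration that halves PBP-bound Bocillin-FL.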
# [3] = test system: E. coli 901C; test: Broth microdilution MIC in CAMHB; assay type: cell-based; conditions: Escherichia coli; E. coli 901C (hyper-permeable); MHB; read-out: Minimum Inhibitory Concentration, E. coli 901C
# Outline: (§1)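 Colonies from cation-adjusted Mueller Hinton agar are grown in broth (3-5 h, 37° C), adjusted by OD600, and added at 2-8×10^5 CFU/mL to 2-fold compound dilutions. After 16-20 h at 37° C, the lowest concentration without growth is taken as MIC.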
# [4] = test system: K. pneumoniae 848844 producing SHV-11 and KPC-2; test: Broth microdilution MIC in CAMHB; assay type: cell-based; conditions: Klebsiella pneumoniae, read-out: Minimum Inhibitory Concentration, K. pneumoniae 848844
# Outline: as §1
# [5] = test system: K. pneumoniae SI-117 producing VIM-1; test: Broth microdilution MIC in CAMHB; assay type: cell-based; conditions: Klebsiella pneumoniae, read-out: Minimum Inhibitory Concentration, K. pneumoniae SI-117
# Outline: as §1
# [6] = test system: K. pneumoniae UMM producing SHV-5 and KPC-2; test: Broth microdilution MIC in CAMHB; assay type: cell-based; conditions: Klebsiella pneumoniae, read-out: Minimum Inhibitory Concentration, K. pneumoniae UMM
# Outline: as §1
# [7] = test system: P. aeruginosa (ΔmexAB-oprM); test: Broth microdilution MIC in CAMHB; assay type: cell-based; conditions: Pseudomonas aeruginosa, read-out: Minimum Inhibitory Concentration, P. aeruginosa ΔmexAB-OprM
# Outline: as §1
# [8] = test system: P. aeruginosa ATCC 27853; test: Broth microdilution MIC in CAMHB; assay type: cell-based; conditions: Pseudomonas aeruginosa, ATCC27853; MHB; read-out: Minimum Inhibitory Concentration, P. aeruginosa ATCC 27853
# Outline: as §1
# [9] = test system: P. aeruginosa ATCC 35151; test: Broth microdilution MIC in CAMHB; assay type: cell-based; conditions: Pseudomonas aeruginosa, ATCC35151; MHB; hyper-permeable strain; read-out: Minimum Inhibitory Concentration, P. aeruginosa ATCC 35151
# Outline: as §1
# T2 sequence (G3XD46 whole entry): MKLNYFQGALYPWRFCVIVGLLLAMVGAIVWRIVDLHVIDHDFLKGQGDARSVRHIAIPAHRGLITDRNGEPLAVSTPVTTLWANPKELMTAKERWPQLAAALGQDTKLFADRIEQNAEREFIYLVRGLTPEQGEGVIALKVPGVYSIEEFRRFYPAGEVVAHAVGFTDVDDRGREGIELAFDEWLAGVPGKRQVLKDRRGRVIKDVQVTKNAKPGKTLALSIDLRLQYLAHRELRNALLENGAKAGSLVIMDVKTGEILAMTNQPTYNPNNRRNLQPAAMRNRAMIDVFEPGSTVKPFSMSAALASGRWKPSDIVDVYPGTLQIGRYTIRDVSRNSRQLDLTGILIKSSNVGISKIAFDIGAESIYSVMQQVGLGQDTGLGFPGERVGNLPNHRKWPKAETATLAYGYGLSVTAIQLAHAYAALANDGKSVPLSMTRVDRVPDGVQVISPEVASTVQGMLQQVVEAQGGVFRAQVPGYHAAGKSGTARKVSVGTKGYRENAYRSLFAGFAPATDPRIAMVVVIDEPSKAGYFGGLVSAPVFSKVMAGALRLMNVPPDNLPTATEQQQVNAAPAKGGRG
# T1 sequence (P0AD68 1-577): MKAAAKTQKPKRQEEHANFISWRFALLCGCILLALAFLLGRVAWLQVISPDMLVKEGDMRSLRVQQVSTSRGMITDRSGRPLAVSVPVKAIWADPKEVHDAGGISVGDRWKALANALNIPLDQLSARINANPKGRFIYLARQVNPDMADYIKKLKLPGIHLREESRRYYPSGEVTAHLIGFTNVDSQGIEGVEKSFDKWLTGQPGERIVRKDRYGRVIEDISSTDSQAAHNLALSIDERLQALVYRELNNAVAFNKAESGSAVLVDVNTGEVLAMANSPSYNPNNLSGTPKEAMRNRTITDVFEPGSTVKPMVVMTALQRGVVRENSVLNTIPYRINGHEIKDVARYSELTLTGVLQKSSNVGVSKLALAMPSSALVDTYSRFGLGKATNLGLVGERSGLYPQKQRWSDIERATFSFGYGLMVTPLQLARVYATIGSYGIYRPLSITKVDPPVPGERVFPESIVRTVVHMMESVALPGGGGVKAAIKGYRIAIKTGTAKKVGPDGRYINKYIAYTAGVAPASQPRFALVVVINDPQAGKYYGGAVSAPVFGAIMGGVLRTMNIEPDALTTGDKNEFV
SMILES,EC50 [1] [µM],P. aeruginosa PBP3 Potency [2],MIC [3] [µg/mL],MIC [4] [µg/mL],MIC [5] [µg/mL],MIC [6] [µg/mL],MIC [7] [µg/mL],MIC [8] [µg/mL],MIC [9] [µg/mL]
"CCN1CCN(C(=O)NC(C(=O)N[C@H]2Cc3cccc(C(=O)O)c3OB2O)c2cc(O)cc(O)c2)C(=O)C1=O (mixture of isomers) [Example 79, (3R)-3-(2-(3,5-dihydroxyphenyl)-2-(4-ethyl-2,3-dioxopiperazine-1-carboxamido)acetamido)-2-hydroxy-3,4-dihydro-2H-benzo[e][1,2]oxaborinine-8-carboxylic acid]",30 to 500,D (D represents a potency <10 μM),< 0.25,32 to 64,32 to 64,8 to 16,2 to 4,> 128,0.5 to 1
"CCN1CCN(C(=O)N[C@H](C(=O)N[C@H]2Cc3cccc(C(=O)O)c3OB2O)c2cc(O)cc(O)c2)C(=O)C1=O (single isomer, unassigned) [Example 81]",> 500,B (B represents a potency between 30 μM and 500 μM inclusive),0.5 to 1,> 128,> 128,> 128,32 to 64,> 128,2 to 4
"CCN1CCN(C(=O)N[C@@H](C(=O)N[C@H]2Cc3cccc(C(=O)O)c3OB2O)c2cc(O)cc(O)c2)C(=O)C1=O (single isomer, unassigned) [Example 82]",30 to 500,D (D represents a potency <10 μM),< 0.25,> 128,32 to 64,32 to 64,32 to 64,> 128,< 0.25
"NCCN1CCN(C(=O)N[C@H](C(=O)N[C@H]2Cc3cccc(C(=O)O)c3OB2O)c2ccc(C(=O)O)cc2)C(=O)C1=O (single isomer, unassigned) [Example 83]",30 to 500,C (C represents a potency between 10 and 30 μM),< 0.25,> 128,> 128,32 to 64,8 to 16,32 to 64,0.5 to 1
"NCCN1CCN(C(=O)N[C@@H](C(=O)N[C@H]2Cc3cccc(C(=O)O)c3OB2O)c2ccc(C(=O)O)cc2)C(=O)C1=O (single isomer, unassigned) [Example 84]",< 30,D (D represents a potency <10 μM),0.5 to 1,32 to 64,> 128,8 to 16,8 to 16,32 to 64,0.5 to 1
"O=C(O)c1ccc(C(NC(=O)N2CCN(CCNC(=O)c3ccc(O)c(O)c3Cl)C(=O)C2=O)C(=O)N[C@H]2Cc3ccc(F)c(C(=O)O)c3OB2O)cc1F (stereo partly drawn) [Example 11, (3R)-3-(2-(4-carboxy-3-fluorophenyl)-2-(4-(2-(2-chloro-3,4-dihydroxybenzamido)ethyl)-2,3-dioxopiperazine-1-carboxamido)acetamido)-7-fluoro-2-hydroxy-3,4-dihydro-2H-benzo[e][1,2]oxaborinine-8-carboxylic acid]",< 30,,0.5 to 1,> 128,32 to 64,2 to 4,,,
"O=C(NC(C(=O)N[C@H]1Cc2ccc(F)c(C(=O)O)c2OB1O)c1ncc(O)cc1F)c1ccnc(F)c1 (stereo partly drawn) [Example 53, (3R)-7-fluoro-3-(2-(3-fluoro-5-hydroxypyridin-2-yl)-2-(2-fluoroisonicotinamido)acetamido)-2-hydroxy-3,4-dihydro-2H-benzo[e][1,2]oxaborinine-8-carboxylic acid]",30 to 500,D (D represents a potency <10 μM),8 to 16,> 128,> 128,> 128,,,
"CCN1CCN(C(=O)NC(C(=O)N[C@H]2Cc3ccc(S)c(C(=O)O)c3OB2O)c2csc(N)n2)C(=O)C1=O (stereo partly drawn) [Example 54, (3R)-3-(2-(2-aminothiazol-4-yl)-2-(4-ethyl-2,3-dioxopiperazine-1-carboxamido)acetamido)-2-hydroxy-7-mercapto-3,4-dihydro-2H-benzo[e][1,2]oxaborinine-8-carboxylic acid]",30 to 500,,0.5 to 1,> 128,> 128,> 128,32 to 64,,8 to 16
"CCN1CCN(C(=O)NC(C(=O)N[C@H]2Cc3ccc(SCc4ccc(O)cc4)c(C(=O)O)c3OB2O)c2csc(N)n2)C(=O)C1=O (stereo partly drawn) [Example 55, (3R)-3-(2-(2-aminothiazol-4-yl)-2-(4-ethyl-2,3-dioxopiperazine-1-carboxamido)acetamido)-2-hydroxy-7-((4-hydroxybenzyl)thio)-3,4-dihydro-2H-benzo[e][1,2]oxaborinine-8-carboxylic acid]",30 to 500,,0.5 to 1,> 128,> 128,> 128,32 to 64,,0.5 to 1
"CCN1CCN(C(=O)NC(C(=O)N[C@H]2Cc3ccc(C=O)c(C(=O)O)c3OB2O)c2csc(N)n2)C(=O)C1=O (stereo partly drawn) [Example 57, (3R)-3-(2-(2-aminothiazol-4-yl)-2-(4-ethyl-2,3-dioxopiperazine-1-carboxamido)acetamido)-7-formyl-2-hydroxy-3,4-dihydro-2H-benzo[e][1,2]oxaborinine-8-carboxylic acid]",30 to 500,C (C represents a potency between 10 and 30 μM),2 to 4,32 to 64,> 128,32 to 64,32 to 64,,2 to 4
"CCN1CCN(C(=O)NC(C(=O)N[C@H]2Cc3ccc(CO)c(C(=O)O)c3OB2O)c2csc(N)n2)C(O)C1=O (stereo partly drawn) [Example 58, (3R)-3-(2-(2-aminothiazol-4-yl)-2-(4-ethyl-2-hydroxy-3-oxopiperazine-1-carboxamido)acetamido)-2-hydroxy-7-(hydroxymethyl)-3,4-dihydro-2H-benzo[el][1,2]oxaborinine-8-carboxylic acid]",30 to 500,B (B represents a potency between 30 μM and 500 μM inclusive),32 to 64,> 128,> 128,> 128,> 128,,8 to 16
"CCN1CCN(C(=O)NC(C(=O)N[C@H]2Cc3ccc(O[C@@H]4CN[C@H](C(=O)N(C)C)C4)c(C(=O)O)c3OB2O)c2ccccc2)C(=O)C1=O (stereo partly drawn) [Example 59, (3R)-7-(((3S,5S)-5-(dimethylcarbamoyl)pyrrolidin-3-yl)oxy)-3-(2-(4-ethyl-2,3-dioxopiperazine-1-carboxamido)-2-phenylacetamido)-2-hydroxy-3,4-dihydro-2H-benzo[e][1,2]oxaborinine-8-carboxylic acid]",30 to 500,,2 to 4,> 128,> 128,> 128,8 to 16,,0.5 to 1
"CCN1CCN(C(=O)NC(C(=O)N[C@H]2Cc3ccc(OCCN)c(C(=O)O)c3OB2O)c2ccccc2)C(=O)C1=O (stereo partly drawn) [Example 60, (3R)-7-(2-aminoethoxy)-3-(2-(4-ethyl-2,3-dioxopiperazine-1-carboxamido)-2-phenylacetamido)-2-hydroxy-3,4-dihydro-2H-benzo[e][1,2]oxaborinine-8-carboxylic acid]",30 to 500,C (C represents a potency between 10 and 30 μM),8 to 16,> 128,> 128,> 128,32 to 64,,2 to 4
"NCCN1CCN(C(=O)NC(C(=O)N[C@H]2Cc3cccc(C(=O)O)c3OB2O)c2c(F)cc(O)cc2Cl)C(=O)C1=O (stereo partly drawn) [Example 94, (3R)-3-(2-(4-(2-aminoethyl)-2,3-dioxopiperazine-1-carboxamido)-2-(2-chloro-6-fluoro-4-hydroxyphenyl)acetamido)-2-hydroxy-3,4-dihydro-2H-benzo[e][1,2]oxaborinine-8-carboxylic acid]",< 30,,0.5 to 1,32 to 64,32 to 64,32 to 64,32 to 64,> 128,2 to 4

# — patent US20230114728A1 (Venatorx Pharmaceuticals, Inc., priority 2019, published 2023)
